# Results from publication PMC2987774, “Creation of a novel peptide with enhanced nuclear localization in prostate and pancreatic cancer cell lines” (BMC Biotechnology, 2010).
# Where “and” joins values, the source holds several entries; their conditions need not be identical. Identical values can stand only once. Like-named read-outs stand apart in the source and are kept apart here. Marks after values point to notes of the source that are not given here.
# Assays:
# DU-145 cells [1] = conditions: for uptake of Glu-Oct6-FITC on coincubation with carboxydansyl peptide: 300 nM dansyl peptide + 300 nM Glu-Oct6-FITC, 1 hr, BD LSR II (Figure 2D); for % Inhibition of uptake: 300 nM, 4 hr
# Experimental: Peptides were added to subconfluent cultures of cells at times, temperatures, and concentrations indicated in experiments. Concentrations ranging from 0 to 1000 nM were assayed. Fluorescence was normalized using calibration beads (Becton-Dickinson; BD). Cells were analyzed in the presence of 5 mM 7-AAD (eBioscience, San Digeo CA) to gate on live events. Fluorescence was quantified, after cells were harvested, using a BD FACScan flow cytometer. At least 10,000 events were acquired using CellQuest Pro software and an Apple Macintosh G4 dual coprocessor computer running OS X 10.3.9. Fluorescence detectors on the instrument were standardized prior to each acquisition run, so that fluorescence intensities from different days could be compared. Because the FACScan employs logarithmic amplifiers on the fluorescence detectors, the more accurate parameter with which to compare fluorescence intensities for different samples is the geometric mean fluorescence intensity (geometric MFI). For the studies examining uptake of carboxyfluorescein peptides plus carboxydansyl peptides, fluorescence was quantified on a BD LSR II flow cytometer.
# DU-145 cells [2] = assay: Apoptosis, FITC-annexin V plus PI flow cytometry; format: cell-based; conditions: 48 hr, mean of 3 experiments
# Experimental: (§1) DU-145 and PANC-1 cells were incubated with PNAs Glu-Oct6-13410a or 13410a (no CPP attached) at 0, 300, 600, or 1000 nM for 48 hr. Cells were harvested, then stained with FITC-annexin V (Abcam; Cambridge, MA) and counterstained with propidium iodide (Sigma, St.Louis, MO). Cells were analyzed on a BD FACScan for fluorescence in the FL1 and FL3 channels; CellQuest Pro software was used to quantify fluorescence and determine the extent of apoptosis.
# PANC-1 cells [3] = assay: Apoptosis, FITC-annexin V plus PI flow cytometry; format: cell-based; conditions: 48 hr, mean of 3 experiments
# Experimental: as §1
# DU-145 and LNCaP cells [4] = assay: Nuclear colocalization by imaging flow cytometry (DRAQ5), statement pooled over two lines; format: cell-based; conditions: 250 nM, 4 hours; fixed cells, IDEAS software
# Experimental: Figure 4 Imaging studies. Figure 4A: DU-145 and LNCaP cells were incubated with 250 nM Glu-Ala-FITC or Glu-Oct6-FITC for 4 hours, counterstained with […] DRAQ 5, then fixed in paraformaldehyde and analyzed by imaging flow cytometry on an Amnis Imaging Cytometer. IDEAS software (Amnis) was used to generate and colorize the images. Across each row of images, one is viewing the same cell under different fluorescence excitations. […] Figure 4B: Live cell imaging of Glu-Oct6-FITC by DU-145 cells. 500 nM Glu-Oct6-FITC was incubated with DU-145 cells overnight (necessary for imaging purposes). Cells were washed with phenol red-free buffer, counter-stained with DRAQ5 at […], and then examined under a Zeiss Axiovert 200 inverted phase contrast microscope with epifluorescence. The merged image confirms the presence of Glu-Oct6-FITC in nuclei. Merged images with and without Nomarski interference are shown. Figure 4C and D: DU-145 cells incubated with Glu-FITC and Oct6-FITC, as described for Figure 3B. Note the absence of FITC fluorescence in nuclei.
# (§2) Concentrations ranging from 0 to 1000 nM were assayed. Fluorescence was normalized using calibration beads (Becton-Dickinson; BD). […] Four to five thousand events were collected for analysis.
# DU-145 and LNCaP cells [5] = assay: Live cell imaging, inverted epifluorescence microscopy with DRAQ5; format: cell-based; conditions: 500 nM, 24 hrs incubation
# Experimental: A Zeiss Axiovert 200 inverted phase-contrast microscope outfitted with epifluorescence was used for live imaging studies. Subconfluent cultures of cells in 12-well plates were incubated with 500 nM peptides as indicated. DRAQ5 (Axxora; […] final concentration) was added for the last hour of incubation, then the cells were washed twice with warm phenol red-free buffer. Cells were examined in phenol red-free buffer plus 10% serum. Images were acquired and analyzed using Zeiss Axiovision software.
# DU-145 cells [6] = assay: Nuclear colocalization by imaging flow cytometry (DRAQ5, Amnis ImageStream); format: cell-based; conditions: 1000 nM, 18 hr; 4 to 5 thousand events
# Experimental: as §2
# PANC-1 cells [7] = assay: as above; format: cell-based; conditions: 1000 nM, 18 hr; 4 to 5 thousand events
# Experimental: as §2
substance,measurement,setting,value
NNNAAGRKRKKRT-dansyl [Asn-Oct6-Dansyl],uptake of Glu-Oct6-FITC on coincubation with carboxydansyl peptide,DU-145 cells [1],nearly unaltered uptake
EEEAAGRKRKKRT-TCCCGTAAATCCCTA [Glu-Oct6-13410a],% apop.,DU-145 cells [2]; 300 nM PNA,8.7%
same,% apop.,DU-145 cells [2]; 600 nM PNA,48% and 48.7* %
same,% apop.,DU-145 cells [2]; 1000 nM PNA,82.5* %
same,% apop.,PANC-1 cells [3]; 300 nM PNA,17.4%
same,% apop.,PANC-1 cells [3]; 600 nM PNA,69% and 69.6* %
same,% apop.,PANC-1 cells [3]; 1000 nM PNA,84.6* %
EEEAAGRKRKKRT-FITC [Glu-Oct6-FITC],distribution in the cytoplasm,DU-145 and LNCaP cells [4],approximately 50%
same,distribution in the nucleus,DU-145 and LNCaP cells [4],approximately 50%
same,accumulation in the nuclei,DU-145 and LNCaP cells [5],accumulated in the nuclei
same,% Inhibition of uptake,DU-145 cells [1]; 0% NaN3 (reference),0%
same,% Inhibition of uptake,DU-145 cells [1]; 0.1% NaN3,0%
same,% Inhibition of uptake,DU-145 cells [1]; 1.0% NaN3,24.8%
EEEAA-FITC [Glu-Ala-FITC],nuclei positive for DRAQ5 and FITC colocalization,DU-145 and LNCaP cells [4],~ 10%
same,accumulation in the nuclei,DU-145 and LNCaP cells [5],not
same,% Inhibition of uptake,DU-145 cells [1]; 0% NaN3 (reference),0%
same,% Inhibition of uptake,DU-145 cells [1]; 0.1% NaN3,0%
EEEAAKKK-FITC [Glu-Lys-FITC],% Inhibition of uptake,DU-145 cells [1]; 0% NaN3 (reference),0%
same,% Inhibition of uptake,DU-145 cells [1]; 0.1% NaN3,0%
"EEEAAGRKRKKRT-TATGATCTCCTCCGT-K-FITC [Glu-Oct6-PNA-FITC, Glu-Oct6 at the N terminus, inert PNA …-lysyl-FITC at the C terminus]",mean % cyto. FITC,DU-145 cells [6],22.48%
same,mean % nuclear FITC,DU-145 cells [6],68.04%
same,mean cyto. FITC intensity,DU-145 cells [6],"76,943"
same,mean nuclear FITC intensity,DU-145 cells [6],"274,597"
same,mean % cyto. FITC,PANC-1 cells [7],21.8%
same,mean cyto. FITC intensity,PANC-1 cells [7],"68,465"
same,mean nuclear FITC intensity,PANC-1 cells [7],"322,794"
"GRKRKKRT-FITC [Oct6-FITC, reference compound]",accumulation in the nuclei,DU-145 and LNCaP cells [5],not
same,% Inhibition of uptake,DU-145 cells [1]; 0% NaN3 (reference),0%
same,% Inhibition of uptake,DU-145 cells [1]; 0.1% NaN3,29.8%
same,% Inhibition of uptake,DU-145 cells [1]; 1.0% NaN3,56.7%
FFFAAGRKRKKRT-dansyl [Phe-Oct6-Dansyl],uptake of Glu-Oct6-FITC on coincubation with carboxydansyl peptide,DU-145 cells [1],nearly unaltered uptake
